Experimental data as given in DBAASP.
Values after ≈ are worked out from the molar mass of the structure shown.

Columns and labels:
Assay in all cases: ≥ marks a high value that may be exact or a test limit, other limits are often not marked, values filed in µg/mL are converted to µM
[1] = system: Bacillus cereus NCLM 2156
[2] = system: Escherichia coli NCLM 2064
[3] = system: Staphylococcus aureus ATCC 25923
[4] = system: Pseudomonas aeruginosa ATCC 10145
Vibrio cholerae PL91 = system: Vibrio cholerae PL91
Klebsiella pneumoniae = system: Klebsiella pneumoniae
[5] = system: Pseudomonas aeruginosa ATCC 15442
[6] = system: Escherichia coli ATCC 25922
Citrobacter sp. = system: Citrobacter sp.
Streptococcus pneumoniae = system: Streptococcus pneumoniae
[7] = system: Acinetobacter baumannii ATCC 15308
Staphylococcus aureus = system: Staphylococcus aureus
Enterobacter cloacae = system: Enterobacter cloacae
[8] = system: Escherichia coli KCTC 1682
[9] = system: Pseudomonas aeruginosa KCTC 1637
[10] = system: Escherichia coli CCARM 1238
[11] = system: Pseudomonas aeruginosa CCARM 2002
[12] = system: Pseudomonas aeruginosa CCARM 2095
[13] = system: Staphylococcus epidermidis KCTC 1917
[14] = system: Staphylococcus aureus KCTC 1621
[15] = system: Staphylococcus aureus CCARM 3108
[16] = system: Acinetobacter baumannii CCARM 12035
[17] = system: Acinetobacter baumannii CCARM 12036
[18] = system: Salmonella typhimurium KCTC 1926
[19] = system: Staphylococcus aureus CCARM 3089
[20] = system: Salmonella typhimurium CCARM 8007
[21] = system: Bacillus subtilis KCTC 3028
[22] = system: Acinetobacter baumannii KCTC 2508
[23] = system: Salmonella typhimurium CCARM 8003
[24] = system: Staphylococcus aureus CCARM 3126
[25] = system: Escherichia coli CCARM 1229

CC[C@H](C)[C@H](NC(=O)[C@H](CCCCN)NC(=O)[C@@H](NC(=O)[C@H](CC(C)C)NC(=O)[C@@H]1CCCN1C(=O)CNC(=O)[C@H](Cc1ccccc1)NC(=O)[C@@H](N)Cc1ccccc1)[C@@H](C)CC)C(=O)N[C@@H](C)C(=O)N[C@H](C(=O)NCC(=O)N[C@H](C(=O)N[C@@H](CC(C)C)C(=O)N1CCC[C@H]1C(=O)N[C@@H](CC(N)=O)C(=O)N[C@@H](CC(C)C)C(=O)N[C@H](C(=O)N[C@H]1CSSC[C@@H](C(=O)O)NC(=O)[C@H](CCCCN)NC(=O)CNC(=O)[C@H](CC(C)C)NC(=O)[C@H](C)NC(=O)[C@H](CCCCN)NC1=O)[C@@H](C)CC)C(C)C)[C@@H](C)O [FFGPLIKIATGVLPNLICKALGKC]
MIC [1]: ≥ 39.7 µM
MIC [2]: 11.9 µM (≈ 30 µg/mL)
MIC [3]: > 59.6 µM
MIC [4]: ≥ 59.6 µM
MIC (Vibrio cholerae PL91): ≥ 59.6 µM

CC[C@H](C)[C@H](NC(=O)[C@H](CC(C)C)NC(=O)CNC(=O)CNC(=O)[C@H](CC(C)C)NC(=O)[C@@H](N)Cc1ccccc1)C(=O)N[C@@H](CCCCN)C(=O)N[C@@H](CCCCN)C(=O)N[C@@H](Cc1c[nH]c2ccccc12)C(=O)N1CCC[C@H]1C(=O)N[C@@H](Cc1c[nH]c2ccccc12)C(=O)N[C@@H](Cc1c[nH]c2ccccc12)C(=O)N1CCC[C@H]1C(=O)N[C@@H](Cc1c[nH]c2ccccc12)C(=O)N[C@@H](CCCN=C(N)N)C(=O)N[C@@H](CCCN=C(N)N)C(N)=O [FLGGLIKKWPWWPWRR]
MIC (Klebsiella pneumoniae): > 118 µM
MIC [3]: 3.67 µM (≈ 7.81 µg/mL)
MIC [5]: 14.7 µM (≈ 31.2 µg/mL)
MIC [6]: 3.67 µM (≈ 7.81 µg/mL)
MIC (Citrobacter sp.): ≥ 118 µM
MIC (Streptococcus pneumoniae): 3.67 µM (≈ 7.81 µg/mL)
MIC [7]: 14.7 µM (≈ 31.2 µg/mL)
MIC (Staphylococcus aureus): 3.67 µM (≈ 7.81 µg/mL)
MIC (Enterobacter cloacae): ≥ 118 µM

CC[C@H](C)[C@H](NC(=O)[C@H](C)NC(=O)[C@H](CCC(=O)O)NC(=O)[C@H](Cc1cnc[nH]1)NC(=O)[C@@H](NC(=O)[C@@H]1CCCN1C(=O)[C@H](CCC(N)=O)NC(=O)[C@H](Cc1ccccc1)NC(=O)[C@@H](NC(=O)[C@H](CCCCN)NC(=O)[C@H](CCCCN)NC(=O)[C@H](CC(C)C)NC(=O)[C@H](C)NC(=O)[C@H](CC(N)=O)NC(=O)[C@H](CC(C)C)NC(=O)CN)C(C)C)[C@@H](C)CC)C(=O)N[C@@H](CCCCN)C(=O)N[C@@H](CCCCN)C(=O)N[C@H](C(=O)N[C@@H](CC(N)=O)C(=O)N[C@@H](CC(N)=O)C(=O)N[C@@H](Cc1cnc[nH]1)C(=O)N[C@H](C(=O)N[C@@H](CCC(N)=O)C(=O)O)C(C)C)[C@@H](C)CC [GLNALKKVFQPIHEAIKKINNHVQ]
MIC [8]: 16 µM (≈ 43.8 µg/mL)
MIC [9]: 8 µM (≈ 21.9 µg/mL)
MIC [10]: 16 µM (≈ 43.8 µg/mL)
MIC [11]: 16 µM (≈ 43.8 µg/mL)
MIC [12]: 16 µM (≈ 43.8 µg/mL)
MIC [13]: ≥ 64 µM
MIC [14]: ≥ 64 µM
MIC [15]: ≥ 64 µM
MIC [16]: 16 µM (≈ 43.8 µg/mL)
MIC [17]: 16 µM (≈ 43.8 µg/mL)
MIC [18]: 16 µM (≈ 43.8 µg/mL)
MIC [19]: ≥ 64 µM
MIC [20]: 16 µM (≈ 43.8 µg/mL)
MIC [21]: ≥ 64 µM
MIC [22]: 16 µM (≈ 43.8 µg/mL)
MIC [23]: 16 µM (≈ 43.8 µg/mL)
MIC [24]: ≥ 64 µM
MIC [25]: ≥ 32 µM
